The values below are quoted from earlier work in patent US20080176830A1, “Compounds, Compositions, and Methods” (priority 2005, published 2008).

This series relates to A549 cells. Particulars: data provided by National Cancer Institute.
In the case of `O=c1[nH]cc(F)c(=O)[nH]1` [5-fluorouracil], the GI50 is 1000 nM. On to `COc1cccc2c1C(=O)c1c(O)c3c(c(O)c1C2=O)C[C@@](O)(C(=O)CO)C[C@@H]3O[C@H]1C[C@H](N)[C@H](O)[C@H](C)O1` [doxorubicin], for which the GI50 is 63 nM. With `NC(=O)NO` [hydroxyurea], the GI50 is 500000 nM. Regarding `CC(=O)O[C@H]1C(=O)[C@@]2(C)[C@H]([C@H](OC(=O)c3ccccc3)[C@]3(O)C[C@H](OC(=O)[C@H](O)[C@@H](NC(=O)c4ccccc4)c4ccccc4)C(C)=C1C3(C)C)[C@]1(OC(C)=O)CO[C@@H]1C[C@@H]2O` [paclitaxel], the 50% growth inhibitory concentration (GI50) was 4 nM.

As usually defined, the GI50 is the concentration that inhibits growth by half.
